Where two headings read alike, the source gives them in different places.
How the values were obtained:
human C1 r = target: T1, human C1 r (Homo sapiens, UniProt P00736); assay: Assay of C1r Enzyme Activity (Assay 1), thioester substrate z-Gly-Arg-S-Bzl with DTNB; type: biochemical
T1 construct: purchased Enzyme Research Labs (South Bend, Ind.)
T1 sequence (P00736 464-705 limits assumed): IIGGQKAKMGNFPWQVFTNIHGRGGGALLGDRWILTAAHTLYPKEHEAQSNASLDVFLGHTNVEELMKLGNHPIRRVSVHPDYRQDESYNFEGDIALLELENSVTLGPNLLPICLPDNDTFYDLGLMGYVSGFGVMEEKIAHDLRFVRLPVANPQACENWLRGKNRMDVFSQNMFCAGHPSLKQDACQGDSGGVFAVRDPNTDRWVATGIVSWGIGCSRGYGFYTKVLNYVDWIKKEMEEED
T1 sequence (P00736 18-463 partner limits assumed): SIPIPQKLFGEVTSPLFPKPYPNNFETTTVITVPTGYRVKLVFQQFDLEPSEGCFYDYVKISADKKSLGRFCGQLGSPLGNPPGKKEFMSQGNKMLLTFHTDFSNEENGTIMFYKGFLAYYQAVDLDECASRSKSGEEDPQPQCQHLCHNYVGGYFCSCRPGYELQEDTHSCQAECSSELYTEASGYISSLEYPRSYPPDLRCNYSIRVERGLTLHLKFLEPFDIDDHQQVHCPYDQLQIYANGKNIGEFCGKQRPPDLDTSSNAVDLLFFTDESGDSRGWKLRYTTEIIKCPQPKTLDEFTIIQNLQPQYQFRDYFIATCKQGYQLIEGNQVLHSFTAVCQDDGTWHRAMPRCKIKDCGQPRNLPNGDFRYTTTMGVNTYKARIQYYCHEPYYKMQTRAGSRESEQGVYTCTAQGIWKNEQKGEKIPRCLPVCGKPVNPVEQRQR
Protocol: Assay of C1 r Enzyme Activity Purified human C1 r was obtained commercially from Enzyme Research Labs (South Bend, Ind.). The enzyme is stored frozen at -70° C. at a stock concentration of about 1 mg/mL of protein until the enzyme is needed. […] The thioester substrate, z-Gly-Arg-S-Bzl, for C1 r assays (McRae, et al., 1981) is obtained commercially from Enzyme System Products (Livermore, Calif.). All other reagents were obtained from Sigma Chemical Co. (St. Louis, Mo.). The procedure for assaying the inhibition of C1 r enzyme activity is as follows. A 5 mM stock solution of z-Gly-Arg-S-Bzl is made in dimethylsulfoxide (DMSO) and stored at room temperature until needed. The stock substrate solution is diluted 3 parts stock substrate solution to 7 parts distilled water to make a 1.5 mM working substrate solution. The working substrate solution is made just before it is needed. A fresh solution of 20 μg/mL of C1 r enzyme is made in 10 mM Tris buffer, pH 7.4. The enzyme solution can be stored on ice for up to an hour. […] Compounds at concentrations ranging from 1 mM to 0.010 mM are dissolved in DMSO and a 10 μL aliquot of each concentration is deposited in a well of a 96-well microtiter plate. Fifty microliters of the working substrate solution and 50 μL of DTNB solution are then dispensed in the wells of the microtiter plate, followed by the immediate addition of 50 μL of the C1 r enzyme solution to start the assay. The assay produces a yellow color that is read in the kinetic mode using a Molecular Devices Thermomax microplate reader set to a wavelength of 405 nm. The assay background is followed by monitoring wells that contain substrate, buffer, and DTNB solutions but no enzyme. All assays are performed in triplicate at each inhibitor concentration tested. Values for each inhibitor concentration are reported as optical density (OD)/minute.

[1] = target: T2, human complement protease C1 r (Homo sapiens, UniProt P00736); assay: Assay 2, inhibition of human complement protease C1r with substrate ZVGR-pNA; type: biochemical; conditions: Table 2; substrate ZVGR-pNA 1.2 mM, pH 7.4, 25° C., 10 minutes preincubation; read-out: Inhibition of Clr ZVGRpNA - Assay 2
T2 sequence (P00736 464-705 limits assumed): T1 sequence (P00736 464-705 limits assumed)
T2 sequence (P00736 18-463 partner limits assumed): T1 sequence (P00736 18-463 partner limits assumed)
Protocol: The assay was performed in a 96-well format. Fifty microliters of water were added to each well followed by 2.5 μL of an inhibitory agent, usually in dimethyl foramide (DMF) (or water). A C1 r solution (100 μL) containing 0.1 μg of activated human C1 r and 100 mM Tris-HCl (pH 7.4 at 25° C.) was then added. The mixture was incubated for 10 minutes at 25° C. The reaction was then started by the addition of 100 μL of a 3 mM (Cbz-Val-Gly-Arg-p-nitroanilide) ZVGR-pNA solution. The final reaction mixture (250 μL) contained 40 mM of Tris-HCl, 1.2 mM of ZVGR-pNA, 0.1 μg C1 R and certain concentration of an inhibitor. The production of p-nitroaniline was monitored at 405 nm every 15 minutes up to 90 minutes (at 25° C.). The velocity was linear for at least 60 minutes.

[2] = Table 2, pH 7.4-7.5, read-out: Inhibition of Clr Assay 1 IC50
[3] = Table 1 and text, pH 7.4-7.5, read-out: Inhibition of Clr Assay 1 (IC50)

Structure (SMILES)	IC50 (human C1 r; [2]) [nM]	IC50 [1] [nM]	IC50 (human C1 r; [3]) [nM]
CN(C(=O)CCc1ccccc1)c1nc2ccccc2c(=O)o1 [Example 68, N-Methyl-N-(4-oxo-4H-benzo[d][1,3]oxazin-2-yl)-3-phenyl-propionamide]	1300	103	
CCCCCCC(=O)N(CC)c1nc2ccccc2c(=O)o1 [Example 66, Heptanoic acid ethyl-(4-oxo-4H-benzo[d][1,3]oxazin-2-yl)-amide]	6320	29	
CN(C(=O)C1CCCCC1)c1nc2ccccc2c(=O)o1 [Example 65, Cyclohexanecarboxylic acid methyl-(4-oxo-4H-benzo[d][1,3]oxazin-2-yl)-amide]	1200	7.8	
CCCCCCCCCCC(=O)N(C)c1nc2ccccc2c(=O)o1 [Example 67, Undecanoic acid methyl-(4-oxo-4H-benzo[d][1,3]oxazin-2-yl)-amide]	> 62500	500	
CCCCCCC(=O)N(C)c1nc2ccccc2c(=O)o1 [Example 64, Heptanoic acid methyl-(4-oxo-4H-benzo[d][1,3]oxazin-2-yl)-amide]	680	47.8	
COc1ccc2nc(Nc3ccccc3I)oc(=O)c2c1 [Example 24, 2-(2-Iodo-phenylamino)-6-methoxy-benzo[d][1,3]oxazin-4-one]			55000
CN(C(=O)c1cccc2ccccc12)c1nc2ccccc2c(=O)o1 [Example 57, Naphthalene-1-carboxylic acid methyl-(4-oxo-4H-benzo[d][1,3]oxazin-2-yl)-amide]			23400
Cc1ccc2nc(Nc3ccccc3I)oc(=O)c2c1 [Example 27, 2-(2-Iodo-phenylamino)-6-methyl-benzo[d][1,3]oxazin-4-one]			> 66000
O=c1oc(Nc2cccc(I)c2)nc2ccccc12 [Example 5, 2-(3-Iodo-phenylamino)-benzo[d][1,3]oxazin-4-one]			> 67000
Cc1ccccc1C(=O)N(C)c1nc2ccccc2c(=O)o1 [Example 36, 2,N-Dimethyl-N-(4-oxo-4H-benzo[d][1,3]oxazin-2-yl)-benzamide]			> 67000
CC(=O)N(C)c1nc2ccccc2c(=O)o1 [Example 69, N-Methyl-N-(4-oxo-4H-benzo[d][1,3]oxazin-2-yl)acetamide]	30000	399	
CN(C(=O)c1ccccc1Cl)c1nc2ccccc2c(=O)o1 [Example 34, 2-Chloro-N-methyl-N-(4-oxo-4H-benzo[d][1,3]oxazin-2-yl)-benzamide]			16000
Cc1cccc2nc(N(C)C(=O)c3ccccc3I)oc(=O)c12 [Example 39, 2-Iodo-N-methyl-N-(5-methyl-4-oxo-4H-benzo[d][1,3]oxazin-2-yl)-benzamide]			> 66000
CSc1ccccc1Nc1nc2ccccc2c(=O)o1 [Example 8, 2-(2-Methylsulfanyl-phenylamino)-benzo[d][1,3]oxazin-4-one]			> 66000
COc1ccc2nc(N(C)C(=O)c3ccccc3I)oc(=O)c2c1 [Example 43, 2-Iodo-N-(6-methoxy-4-oxo-4H-benzo[d][1,3]oxazin-2-yl)-N-methyl-benzamide]			48000
CCCCc1ccc(C(=O)N(C)c2nc3ccccc3c(=O)o2)cc1 [Example 58, 4-Butyl-N-methyl-N-(4-oxo-4H-benzo[d][1,3]oxazin-2-yl)-benzamide]			16000

The remaining lines, values ahead:

IC50 (human C1 r; [2]) [nM]	IC50 [1] [nM]	IC50 (human C1 r; [3]) [nM]	Structure (SMILES)
		800	CSc1ccccc1C(=O)N(C)c1nc2ccccc2c(=O)o1 [Example 15, N-Methyl-2-methylsulfanyl-N-(4-oxo-4H-benzo[d][1,3]oxazin-2-yl)-benzamide]
		1500	O=c1oc(Nc2c(Cl)cccc2Cl)nc2ccccc12 [Example 53, 2-(2,6-Dichloro-phenylamino)-benzo[d][1,3]oxazin-4-one]
		10700	CN(C(=O)c1ccccc1)c1nc2ccccc2c(=O)o1 [Example 17, N-Methyl-N-(4-oxo-4H-benzo[d][1,3]oxazin-2-yl)benzamide]
		1300	O=c1oc(Nc2c(Cl)cccc2Cl)nc2ccccc12 [Example 7, 2-(2,6-Dichloro-phenylamino)-benzo[d][1,3]oxazin-4-one]
		700	O=c1oc(Nc2ccccc2I)nc2cc(Cl)ccc12 [Example 23, 7-Chloro-2-(2-iodo-phenylamino)-benzo[d][1,3]oxazin-4-one]
		3100	CN(C(=O)c1ccccc1I)c1nc2ccccc2c(=O)o1 [Example 12, 2-Iodo-N-methyl-N-(4-oxo-4H-benzo[d][1,3]oxazin-2-yl)-benzamide]
		2000	O=c1oc(Nc2ccccc2Cl)nc2cc(Cl)c(Cl)cc12 [Example 48, 6,7-Dichloro-2-(2-chloro-phenylamino)-benzo[d][1,3]oxazin-4-one]
		4000	O=c1oc(Nc2ccccc2I)nc2ccc(Cl)cc12 [Example 22, 6-Chloro-2-(2-iodo-phenylamino)-benzo[d][1,3]oxazin-4-one]
